Patent US8722580B2, “Agent for inhibiting cytokinin signaling” (Sumitomo Chemical Company, Limited, priority 2006, dated 2014)

Tests used:
rice [1] = test: Root growth-promoting activity by rice seed treatment (Example 12); assay type: in vivo, Oriza sativa L. japonica; settings: rice seeds treated with 10,000 ppm acetone solution; 4 days dark at 30° C. then 35 days greenhouse
Procedure: With respect to the chemical substance Ic3-1 and the chemical substance Ic7-1 (which inhibit intracellular signaling from a plant-derived cytokinin receptor of a cell) selected in Example 7, a main root-growth promoting activity induced by seed treatment was evaluated using rice (Oriza sativa L. japonica). The chemical substance was dissolved in acetone to prepare a 10,000 ppm solution. The acetone chemical substance solution (300 μl) thus prepared was put in an eppendorf tube. Then, 15 seeds were put in the eppendorf tube. The resulting mixture was mixed for about 30 seconds. The seeds thus chemical-treated were spread and dried on a filter paper.
About 820 ml of culture soil was placed in a plastic container (120 mm in length, 97 mm in height) with a hole in the bottom. The chemical-treated seeds were sowed in the plastic container (15 seeds per plastic container). The seeds were cultivated in a dark place at 30° C. for 4 days and then cultivated in a greenhouse for 35 days. Roots of the plant thus cultivated were removed and the soil adhered to the plant was washed away, followed by freeze-drying. Then, the weight of roots after freeze-drying was measured. A test was repeated 3 times for each treatment section, and an average was determined.

cytokinin receptor CRE1 = biological target: T1, cytokinin receptor CRE1 (Arabidopsis thaliana, UniProt Q9C5U0, S567G/T1018A); test: Inhibition of intracellular signaling from plant-derived cytokinin receptor, growth of transformed yeast cell TM182-CRE1; assay type: cell-based; settings: for inhibition at 2 ppm: read-out: Activity (%) of test substance for inhibiting intracellular signaling from plant-derived cytokinin receptor of cell; for Relative growth rate (%) in test section of test substance to control section, Transformed cell TM182-CRE1: 30° C., 24 hours, turbidity OD 600
T1 construct: expressed in transfected cells; host or cells: Saccharomyces cerevisiae TM182 (sln1Δ) transformed with p415CYC-CRE1
T1 sequence (Q9C5U0 24-1080 S567G/T1018A): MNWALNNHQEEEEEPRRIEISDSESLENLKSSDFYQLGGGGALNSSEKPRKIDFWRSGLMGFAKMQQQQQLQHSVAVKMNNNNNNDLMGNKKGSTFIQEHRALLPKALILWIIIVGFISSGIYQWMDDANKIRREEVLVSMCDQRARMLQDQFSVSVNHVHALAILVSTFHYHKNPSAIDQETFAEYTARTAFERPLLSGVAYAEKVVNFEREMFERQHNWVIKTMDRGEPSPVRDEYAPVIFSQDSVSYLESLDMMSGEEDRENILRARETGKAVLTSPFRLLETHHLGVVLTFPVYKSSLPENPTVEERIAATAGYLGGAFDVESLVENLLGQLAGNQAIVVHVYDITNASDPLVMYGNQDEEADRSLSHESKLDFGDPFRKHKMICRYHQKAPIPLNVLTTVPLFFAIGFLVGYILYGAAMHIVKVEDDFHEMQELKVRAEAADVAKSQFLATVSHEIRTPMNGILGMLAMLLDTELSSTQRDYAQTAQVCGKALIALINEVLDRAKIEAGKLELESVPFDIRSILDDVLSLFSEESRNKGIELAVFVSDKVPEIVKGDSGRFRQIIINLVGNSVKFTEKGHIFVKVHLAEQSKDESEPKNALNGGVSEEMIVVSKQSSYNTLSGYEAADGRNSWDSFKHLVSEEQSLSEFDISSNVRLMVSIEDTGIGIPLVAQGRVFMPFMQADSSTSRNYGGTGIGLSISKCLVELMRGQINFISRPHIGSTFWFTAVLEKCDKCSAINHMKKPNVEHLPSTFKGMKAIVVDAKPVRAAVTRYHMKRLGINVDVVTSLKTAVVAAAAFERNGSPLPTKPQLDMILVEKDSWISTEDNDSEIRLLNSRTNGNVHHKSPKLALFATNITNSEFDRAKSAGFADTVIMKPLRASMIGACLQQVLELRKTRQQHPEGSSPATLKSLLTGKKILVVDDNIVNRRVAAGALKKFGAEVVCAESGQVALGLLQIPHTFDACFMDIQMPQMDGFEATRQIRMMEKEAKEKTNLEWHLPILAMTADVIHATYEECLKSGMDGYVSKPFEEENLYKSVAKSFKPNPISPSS
How it was run: (§1)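 Yeast TM182-CRE1 (DOLU+Glu) or control TM182-p415CYC1 (DOLU+Gal), after 18 h preculture at 30° C and dilution to OD600=0.1, exposed to compound at 2 ppm plus trans-zeatin 0.6 ppm for 24 h at 30° C. OD600 vs DMSO control, blank-corrected; inhibition = 100 − relative growth %.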

[2] = tested on: transformed cell TM182-p415CYC1; test: Control growth test with transformed yeast cell TM182-p415CYC1 (toxicity to yeast); assay type: cell-based; settings: trans-zeatin 0.6 ppm; chemical substance 2 ppm; 30° C., 24 hours; turbidity OD 600
How it was run: as §1

Arabidopsis thaliana [3] = test: Root growth-promoting activity test (Example 9); assay type: in vivo; settings: Arabidopsis thaliana, 240 h, main root length vs control section, 22° C., 10 days; for activity at 5 ppm: test final concentration 5 ppm (concentration with highest root growth rate)
How it was run: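 Arabidopsis seeds (10–20 per tube) were grown in Enshi standard medium containing the compound from DMSO at 0.001–10 ppm final, at 22° C in light for 10 days. Main root length was averaged over eight repeats and expressed as % of the control.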

Arabidopsis thaliana [4] = test: Root growth-promoting activity test (Example 22); assay type: in vivo; settings: main root length vs control section, 22° C., 10 days
Procedure: Enshi standard medium having the following composition (see Table 18) was prepared. To cluster tubes was dispensed each 4 μl of a solution of a chemical substance in DMSO to a final concentration of 0.001 ppm to 10 ppm, and then, was dispensed each 600 μl of the sterilized Enshi standard medium. Then the resulting solution was well mixed. In each of the cluster tubes, 10-20 seeds of Arabidopsis thaliana were sown, and cultured at 22° C. for 10 days in the light. Then, the length of main roots (average main roots) generated from the seeds of Arabidopsis thaliana was measured. An average of eight repeats was determined, and a root growth rate was determined according to the following equation.
Root growth rate (%)=(Average main root length in chemical substance-treated section)/(Average main root length in control section)×100
Enshi standard medium determined having the following composition (Table 18) was prepared. A DMSO solution of a chemical substance was dispensed by 4 μl to cluster tubes to a final concentration of 0.001 ppm to 10 ppm and the sterilized Enshi standard medium was dispensed by 600 μl and then the resulting solution was well mixed. 10-20 seeds of A. thaliana per cluster tube were sown in the cluster tubes. After culture at 22° C. for 10 days in bright light, the length of main roots (average main roots) took from seeds of A. thaliana was measured. An average of eight repeats was determined and the root growth rate was determined.
Root growth rate (%)=(Average main root length of chemical substance-treated section)/(Average main root length of control section)×100

[5] = tested on: hypocotyl of Arabidopsis thaliana; test: Plant differentiation-promoting activity, adventitious root formation from hypocotyl (Example 13); assay type: in vivo, Arabidopsis thaliana Columbia; settings: agar medium with trans-zeatin 0.01 ppm; test sections with final concentration 6 ppm or 2 ppm
Procedure: With respect to the chemical substance Ic3-1 and the chemical substance Ic7-1 (which inhibit intracellular signaling from a plant-derived cytokinin receptor of a cell) selected in Example 7, a plant differentiation-promoting activity was evaluated by examining an adventitious root formation activity using an hypocotyl of Arabidopsis thaliana Columbia.
First, an agar medium for sowing Arabidopsis thaliana was prepared. The agar medium contains, as components per 1 liter of an aqueous solution, 1 parcel of mixed salts for Murashige-Scoog plant medium (Wako Pure Chemical Industries, Ltd.) for 1 liter, 10 g of sucrose, 10 ml of an aqueous 5% MES (2-(N-Morpholino)ethanesulfonic acid) solution adjusted to pH 5.7 with potassium hydroxide, 100 mg of inositol, 1 ml of vitamins stock solution (10 g of thiamine hydrochloride, 1 g of pyridoxine hydrochloride, and 1 g of nicotinic acid per 1 liter of an aqueous solution) and 8 g of agar. Then, the agar medium was subjected to autoclave at 120° C. for 20 minutes, dispensed to circular petri dishes, and then solidified.
Seeds of Arabidopsis thaliana (about 25 μl) were put in a 1.5 ml tube. Thereto was added 1 ml of a 10-fold diluted solution of a sodium hypochlorite solution (Nacalai Tesque) with sterilized distilled water. The seed were sterilized while stirring for about 1 minute with a tube mixer (TOMY, MT-360, MIXING SPEED10). […]

rice [6] = test: Root growth-promoting activity using rice, seed growth pouch (Example 11); assay type: in vivo, Oriza sativa L. japonica; settings: 25° C., 7 days
Procedure: With respect to the chemical substance Ic3-1 and the chemical substance Ic7-1 (which inhibit intracellular signaling from a plant-derived cytokinin receptor of a cell) selected in Example 7, a main root-growth promoting activity was evaluated using rice (Oriza sativa L. japonica). Aqueous solutions of the chemical substance having different concentrations (10 ppm, 25 ppm, each containing 0.1% DMSO) were prepared. A naper towel was impregnated with 17 ml of the chemical solution, wherein the heavy paper was placed in a seed growth pouch for observation of root growth (177 mm×163 mm, manufactured by Daiki Rika Kogyo Co., Ltd.), and 3 rice seeds were sowed on the paper towel. The pouch was put in a plastic container, and then sealed. After culture in the light at 25° C. for 7 days, the length of a main root was measured. An average of 3 repeats was determined and a root growth rate was determined by the following equation. Root growth rate (%)=(Average main root length in chemical substance-treated section)/(Average main root length in control section)×100−100

[7] = trans-zeatin 0.6 ppm, chemical substance 2 ppm

## O=C(O)Cc1c[nH]c2ccccc12 [IAA, reference compound]
Rice [1]
  dry weight of roots per plant, % of the control section: 87%

## Clc1ccc2nc(NCc3ccco3)nc(-c3ccccc3)c2c1 [Ic3-16, 6-chloro-2-furfurylamino-4-phenylquinazoline]
Cytokinin receptor CRE1
  inhibition at 2 ppm: 96.8%
Cytokinin receptor CRE1; [7]
  Relative growth rate (%) in test section of test substance to control section, Transformed cell TM182-CRE1: 3.2%
[2]
  Relative growth rate (%) in test section of test substance to control section, Transformed cell TM182-p415CYC1: 97.0%
other
  melting point: 142 °C
Arabidopsis thaliana [3]
  activity at 5 ppm: 155%
Arabidopsis thaliana [4]; test final concentration 5 ppm (highest root growth rate)
  Root growth-promoting activity (root growth rate): 155.3%

## CN(N)c1nc(-c2ccccc2)c2cc(Cl)ccc2n1 [Ic3-27, 6-chloro-2-(1-methylhydrazino)-4-phenylquinazoline]
Cytokinin receptor CRE1
  inhibition at 2 ppm: 97.7%
Cytokinin receptor CRE1; [7]
  Relative growth rate (%) in test section of test substance to control section, Transformed cell TM182-CRE1: 2.3%
[2]
  Relative growth rate (%) in test section of test substance to control section, Transformed cell TM182-p415CYC1: 107.4%
other
  melting point: 155.9 °C
Arabidopsis thaliana [3]; test final concentration 2.5 ppm (concentration with highest root growth rate)
  activity at 2.5 ppm: 128%

## CONc1nc(-c2ccccc2)c2cc(Cl)ccc2n1 [Ic3-32, 6-chloro-2-methoxyamino-4-phenylquinazoline]
Cytokinin receptor CRE1
  inhibition at 2 ppm: 95.5%
Cytokinin receptor CRE1; [7]
  Relative growth rate (%) in test section of test substance to control section, Transformed cell TM182-CRE1: 4.5%
[2]
  Relative growth rate (%) in test section of test substance to control section, Transformed cell TM182-p415CYC1: 89.2%
other
  melting point: 173.9 °C
Arabidopsis thaliana [3]
  activity at 5 ppm: 123%

## CCOC(=O)CNc1nc(-c2ccccc2)c2cc(Cl)ccc2n1 [Ic3-33, 6-chloro-2-ethoxycarbonylmethylamino-4-phenylquinazoline]
Cytokinin receptor CRE1
  inhibition at 2 ppm: 99%
Cytokinin receptor CRE1; [7]
  Relative growth rate (%) in test section of test substance to control section, Transformed cell TM182-CRE1: 1.0%
[2]
  Relative growth rate (%) in test section of test substance to control section, Transformed cell TM182-p415CYC1: 114.6%
other
  melting point: 146.1 °C
Arabidopsis thaliana [3]
  activity at 5 ppm: 124%
Arabidopsis thaliana [4]; test final concentration 10 ppm (highest root growth rate)
  Root growth-promoting activity (root growth rate): 140.4%

## O=CNc1nc(-c2ccccc2)c2cc(Cl)ccc2n1 [Ic3-35, 6-chloro-2-formamido-4-phenylquinazoline]
other
  melting point: 252.1 °C
Arabidopsis thaliana [3]; test final concentration 10 ppm (concentration with highest root growth rate)
  activity at 10 ppm: 144%
Arabidopsis thaliana [4]; test final concentration 2.5 ppm (highest root growth rate)
  Root growth-promoting activity (root growth rate): 134.0%

## O=[N+]([O-])c1ccc2nc(NCCCO)nc(-c3ccccc3)c2c1 [Ic7-1]
Cytokinin receptor CRE1; [7]
  Relative growth rate (%) in test section of test substance to control section, Transformed cell TM182-CRE1: 6.7%
Cytokinin receptor CRE1; trans-zeatin 0.6 ppm, chemical substance 2 ppm, = 100 − relative growth rate of TM182-CRE1
  Activity (%) of test substance for inhibiting intracellular signaling from plant-derived cytokinin receptor of cell: 93.3%
[2]
  Relative growth rate (%) in test section of test substance to control section, Transformed cell TM182-p415CYC1: 115.8%
[5]
  adventitious root formation from the hypocotyl portion: adventitious roots were formed
Rice [1]
  dry weight of roots per plant, % of the control section: 126%
Rice [6]; 10 ppm
  main root growth increase relative to the control section: 17%
Rice [6]; 25 ppm
  main root growth increase relative to the control section: 19%

## OCCSc1nc(-c2ccccc2)c2cc(Cl)ccc2n1 [Ie3-1, 6-chloro-2-(2-hydroxyethylthio)-4-phenylquinazoline]
Cytokinin receptor CRE1
  inhibition at 2 ppm: 97.7%
Cytokinin receptor CRE1; [7]
  Relative growth rate (%) in test section of test substance to control section, Transformed cell TM182-CRE1: 2.3%
[2]
  Relative growth rate (%) in test section of test substance to control section, Transformed cell TM182-p415CYC1: 110.7%
other
  melting point: 124.4 °C
Arabidopsis thaliana [3]
  activity at 5 ppm: 121%
